Test results: patent US20180243298A1, “TRPV3 MODULATORS” (AbbVie Inc., priority 2015, published 2018)

target: T1, human TRPV3 (Homo sapiens, UniProt Q8NET8); experiment: Calcium flux assay (FLIPR TETRA), recombinant HEK293 cells expressing TRPV3, 2-APB response; format: cell-based; details: 2-APB at its EC80
T1 construct: expressed in transfected cells; host or cells: HEK293
T1 sequence (Q8NET8 1-790): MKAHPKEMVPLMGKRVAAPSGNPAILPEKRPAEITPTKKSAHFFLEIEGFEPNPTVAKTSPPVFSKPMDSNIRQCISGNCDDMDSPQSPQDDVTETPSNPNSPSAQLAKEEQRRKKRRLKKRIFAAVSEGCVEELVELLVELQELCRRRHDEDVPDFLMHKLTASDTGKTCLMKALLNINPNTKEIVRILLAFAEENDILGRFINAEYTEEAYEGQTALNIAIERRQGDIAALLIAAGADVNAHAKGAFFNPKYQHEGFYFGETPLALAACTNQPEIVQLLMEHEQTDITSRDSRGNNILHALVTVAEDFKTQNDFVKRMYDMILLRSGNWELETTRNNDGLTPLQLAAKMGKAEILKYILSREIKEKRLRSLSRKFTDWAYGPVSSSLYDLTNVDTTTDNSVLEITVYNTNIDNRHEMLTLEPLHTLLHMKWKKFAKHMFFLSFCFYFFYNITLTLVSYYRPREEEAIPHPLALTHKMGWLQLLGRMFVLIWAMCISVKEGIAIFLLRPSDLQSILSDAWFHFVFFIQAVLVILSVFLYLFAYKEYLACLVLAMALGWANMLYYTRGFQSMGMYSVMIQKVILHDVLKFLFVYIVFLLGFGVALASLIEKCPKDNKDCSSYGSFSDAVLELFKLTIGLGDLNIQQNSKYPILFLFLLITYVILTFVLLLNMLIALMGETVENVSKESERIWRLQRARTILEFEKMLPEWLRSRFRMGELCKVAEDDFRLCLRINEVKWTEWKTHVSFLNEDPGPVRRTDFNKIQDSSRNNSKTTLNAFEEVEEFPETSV
Description: (i) In Vitro Methods-Calcium Flux Assays:
Experiments were conducted using the FLIPR TETRA®. On the day prior to the experiment, recombinant HEK293 cells that stably express human and mouse TRPV3 were removed from tissue culture flasks and plated in growth medium at 20,000 cells/well into black-walled clear-bottom 384-well BIOCOAT™ poly-D-lysine assay plates (BD Biosciences, Bedford, Mass.) using a MULTIDROP® dispenser (ThermoScientific, Waltham, Mass.). On the day of the experiment, growth medium was removed, and the no-wash FLIPR® Calcium-4 dye (λEX=470-495 nm, λEM=515-575 nm; Molecular Devices, Sunnyvale, Calif.) was added to each well using the MULTIDROP® dispenser. Cells were incubated for 90-120 minutes in the dark. The compounds were dissolved in DMSO to prepare a 10 mM stock solution. The intensity of the fluorescence was captured and digitally transferred to an interfaced PC. The peak increase in fluorescence over baseline, measured in relative fluorescence units, was calculated and expressed as the percentage of the maximal 2-APB (2-aminoethoxyldiphenyl borate) response (in the absence of compound). The concentration of 2-APB corresponds to its EC80.

IC50	SMILES
< 50 nM	CCOC(=O)c1sc(NC(=O)c2c(OC)ncnc2OC)nc1C(C)(C)C [Example 193, ethyl 4-tert-butyl-2-{[(4,6-dimethoxypyrimidin-5-yl)carbonyl]amino}-1,3-thiazole-5-carboxylate]
< 50 nM	COc1ncnc(OC)c1C(=O)Nc1nc(C(F)(F)F)c(-c2cccnc2N2CCOCC2)s1 [Example 185, 4,6-dimethoxy-N-{5-[2-(morpholin-4-yl)pyridin-3-yl]-4-(trifluoromethyl)-1,3-thiazol-2-yl}pyrimidine-5-carboxamide]
> 1000 nM	COc1ncnc(OC)c1C(=O)Nc1nc(C(F)(F)F)c(CCCO)s1 [Example 13, N-[5-(3-hydroxypropyl)-4-(trifluoromethyl)-1,3-thiazol-2-yl]-4,6-dimethoxypyrimidine-5-carboxamide]
500 to 1000 nM	COc1ncnc(OC)c1C(=O)Nc1nc(C(F)(F)F)c(CN2CC[C@@H](OC)C2)s1 [Example 60, 4,6-dimethoxy-N-[5-{[(3R)-3-methoxypyrrolidin-1-yl]methyl}-4-(trifluoromethyl)-1,3-thiazol-2-yl]pyrimidine-5-carboxamide]
100 to 500 nM	COc1ncnc(OC)c1C(=O)Nc1nc(-c2ccc(C(F)(F)F)cn2)c(S(C)(=O)=O)s1 [Example 114, 4,6-dimethoxy-N-[5-methylsulfonyl-4-[5-(trifluoromethyl)-2-pyridyl]-1,3-thiazol-2-yl]pyrimidine-5-carboxamide]
100 to 500 nM	COc1ncnc(OC)c1C(=O)Nc1nc(-c2ccc(C(F)F)cn2)cs1 [Example 94, N-{4-[5-(difluoromethyl)pyridin-2-yl]-1,3-thiazol-2-yl}-4,6-dimethoxypyrimidine-5-carboxamide]
100 to 500 nM	COc1ncnc(OC)c1C(=O)Nc1nc(C(F)(F)F)c(C(O)c2ccc(F)cn2)s1 (stereo not shown) [Example 130, N-{5-[(5-fluoropyridin-2-yl)(hydroxy)methyl]-4-(trifluoromethyl)-1,3-thiazol-2-yl}-4,6-dimethoxypyrimidine-5-carboxamide]
100 to 500 nM	COc1ncnc(OC)c1C(=O)Nc1nc(C(F)(F)F)c(/C(C)=N/O)s1 [Example 134, N-{5-[(1E)-N-hydroxyethanimidoyl]-4-(trifluoromethyl)-1,3-thiazol-2-yl}-4,6-dimethoxypyrimidine-5-carboxamide]
100 to 500 nM	COCc1sc(NC(=O)c2c(OC)ncnc2OC)nc1C(F)(F)F [Example 206, 4,6-dimethoxy-N-(5-(methoxymethyl)-4-(trifluoromethyl)thiazol-2-yl)pyrimidine-5-carboxamide]
50 to 100 nM	COc1ncnc(OC)c1C(=O)Nc1nc(C(F)(F)F)c(C2=COCCC2)s1 [Example 147, N-[5-(3,4-dihydro-2H-pyran-5-yl)-4-(trifluoromethyl)-1,3-thiazol-2-yl]-4,6-dimethoxypyrimidine-5-carboxamide]
100 to 500 nM	COc1ncnc(OC)c1C(=O)Nc1nc(-c2ccc(C(F)(F)F)cn2)c(C=O)s1 [Example 76, N-{5-formyl-4-[5-(trifluoromethyl)pyridin-2-yl]-1,3-thiazol-2-yl}-4,6-dimethoxypyrimidine-5-carboxamide]

Continued, compound first:

SMILES	IC50
CO/N=C(\c1ccccc1)c1sc(NC(=O)c2c(OC)ncnc2OC)nc1C(F)(F)F [Example 125, 4,6-dimethoxy-N-{5-[(E)-(methoxyimino)(phenyl)methyl]-4-(trifluoromethyl)-1,3-thiazol-2-yl}pyrimidine-5-carboxamide]	< 50 nM
COc1ncnc(OC)c1C(=O)Nc1nc(C(F)(F)F)c(-c2cn(C)nc2C)s1 [Example 67, N-[5-(1,3-dimethyl-1H-pyrazol-4-yl)-4-(trifluoromethyl)-1,3-thiazol-2-yl]-4,6-dimethoxypyrimidine-5-carboxamide]	50 to 100 nM
COc1ncnc(OC)c1C(=O)Nc1nc(C(F)(F)F)c(-c2cccc(F)c2C#N)s1 [Example 25, N-[5-(2-cyano-3-fluorophenyl)-4-(trifluoromethyl)-1,3-thiazol-2-yl]-4,6-dimethoxypyrimidine-5-carboxamide]	< 50 nM
COc1ncnc(OC)c1C(=O)Nc1nc(C(F)(F)F)c(C2(O)CCOCC2)s1 [Example 117, N-[5-(4-hydroxytetrahydro-2H-pyran-4-yl)-4-(trifluoromethyl)-1,3-thiazol-2-yl]-4,6-dimethoxypyrimidine-5-carboxamide]	> 1000 nM
COc1ncnc(OC)c1C(=O)Nc1nc(C(F)(F)F)c(-c2cccc(S(=O)(=O)N3CCOCC3)c2)s1 [Example 195, 4,6-dimethoxy-N-{5-[3-(morpholin-4-ylsulfonyl)phenyl]-4-(trifluoromethyl)-1,3-thiazol-2-yl}pyrimidine-5-carboxamide]	50 to 100 nM
COc1ncnc(OC)c1C(=O)Nc1nc(C(F)(F)F)c(CN2CCC3(CC2)COC3)s1 [Example 61, 4,6-dimethoxy-N-[5-(2-oxa-7-azaspiro[3.5]non-7-ylmethyl)-4-(trifluoromethyl)-1,3-thiazol-2-yl]pyrimidine-5-carboxamide]	100 to 500 nM
COc1ncnc(OC)c1C(=O)Nc1nc(C(F)(F)F)c(C#CC2CC2)s1 [Example 14, N-[5-(cyclopropylethynyl)-4-(trifluoromethyl)-1,3-thiazol-2-yl]-4,6-dimethoxypyrimidine-5-carboxamide]	< 50 nM
COc1ncnc(OC)c1C(=O)Nc1nc(C(F)(F)F)c(-c2ccc(C3(C#N)CC3)cn2)s1 [Example 157, N-{5-[5-(1-cyanocyclopropyl)pyridin-2-yl]-4-(trifluoromethyl)-1,3-thiazol-2-yl}-4,6-dimethoxypyrimidine-5-carboxamide]	50 to 100 nM
COCC#Cc1sc(NC(=O)c2c(OC)ncnc2OC)nc1C(F)(F)F [Example 15, 4,6-dimethoxy-N-[5-(3-methoxyprop-1-yn-1-yl)-4-(trifluoromethyl)-1,3-thiazol-2-yl]pyrimidine-5-carboxamide]	< 50 nM
COc1ncnc(OC)c1C(=O)Nc1nc(C2CCC2)c(C#N)s1 [Example 102, N-(5-cyano-4-cyclobutyl-1,3-thiazol-2-yl)-4,6-dimethoxypyrimidine-5-carboxamide]	100 to 500 nM
COc1ncnc(OC)c1C(=O)Nc1nc(C(F)(F)F)c(CNC2CCCC2)s1 [Example 51, N-{5-[(cyclopentylamino)methyl]-4-(trifluoromethyl)-1,3-thiazol-2-yl}-4,6-dimethoxypyrimidine-5-carboxamide]	100 to 500 nM
COc1ncnc(OC)c1C(=O)Nc1nc(-c2ccc(C(F)(F)F)cn2)c(CN2CCCC2)s1 [Example 78, 4,6-dimethoxy-N-{5-(pyrrolidin-1-ylmethyl)-4-[5-(trifluoromethyl)pyridin-2-yl]-1,3-thiazol-2-yl}pyrimidine-5-carboxamide]	100 to 500 nM
COc1ncnc(OC)c1C(=O)Nc1nc(/C=C/c2ccc(F)cc2)cs1 [Example 106, N-{4-[(E)-2-(4-fluorophenyl)ethenyl]-1,3-thiazol-2-yl}-4,6-dimethoxypyrimidine-5-carboxamide]	500 to 1000 nM
COc1ncnc(OC)c1C(=O)Nc1nc(C(F)(F)F)c(-c2cnn(C3CC3)c2)s1 [Example 168, N-[5-(1-cyclopropyl-1H-pyrazol-4-yl)-4-(trifluoromethyl)-1,3-thiazol-2-yl]-4,6-dimethoxypyrimidine-5-carboxamide]	50 to 100 nM
CCOc1ncnc(OCC)c1C(=O)Nc1nc(C(F)(F)F)c(CC)s1 [Example 71, 4,6-diethoxy-N-[5-ethyl-4-(trifluoromethyl)-1,3-thiazol-2-yl]pyrimidine-5-carboxamide]	< 50 nM
COc1ncnc(OC)c1C(=O)Nc1nc(C(F)(F)F)c(-c2cnc(C3CC3)nc2)s1 [Example 203, N-[5-(2-cyclopropylpyrimidin-5-yl)-4-(trifluoromethyl)-1,3-thiazol-2-yl]-4,6-dimethoxypyrimidine-5-carboxamide]	< 50 nM
COc1ncnc(OC)c1C(=O)Nc1nc(-c2ccc(C(F)(F)F)cn2)c(C2(C)OCCO2)s1 [Example 90, 4,6-dimethoxy-N-{5-(2-methyl-1,3-dioxolan-2-yl)-4-[5-(trifluoromethyl)pyridin-2-yl]-1,3-thiazol-2-yl}pyrimidine-5-carboxamide]	50 to 100 nM
